Data on two compounds can be found in US10786570B2, “Ferritin nanoparticle compositions and methods to modulate cell activity” (The Rockefeller University, priority 2011, dated 2020).

Format in all cases: cell-based
Test [1] relates to HEK 293T cells expressing TRPV1^His and Ca2+-dependent human insulin construct. Description: RF dependent insulin gene expression (real-time PCR). The settings on record: ruthenium red. On the procedure: (§1) RF dependent release of calcium dependent human insulin: 24 h prior to the study, cells were placed in serum free medium at 32° C. to ensure minimal activation of TRPV1 and calcium dependent pathways. On the day of study, cells were preincubated for 30 min in 500 μl PBS or 500 μl of functionalized iron oxide nanoparticles (1 mg/ml) resuspended in PBS. Cells were washed three times in PBS before incubation in 300 μl of calcium imaging buffer at room temperature (control) or in a RF field at room temperature. The supernatant was removed at 15, 30, 45 or 60 min depending on the study, spun to remove cell debris and frozen at −80° C. until assay. For gene expression analysis, cells from the supernatant and cover glass were lysed and the lysate stored at […] until RNA purification. For apoptosis studies, the cells were incubated with functionalized nanoparticles at 1, 2, 4 or 8 mg/ml before RF treatment and immunocytochemistry. For RF dependent time course from stable PC12 cells, cells were left in serum containing medium prior to treatment to more accurately replicate conditions in vivo before performing the studies as described above. Medium was removed for assay at 15 and 30 mins.
(§2) For studies examining the role of TRP channels in RF mediated proinsulin release, ruthenium red (100 μM) was added to the calcium imaging buffer. […]

In test [2] the test system is HEK 293T cells transfected with TRPV1, BAPTM and calcium dependent human insulin. Put plainly: RF dependent insulin gene expression, dual component system. The settings on record: ruthenium red, TRPV1 BAP system. The protocol:
as §1, §2

The test system of test [3] is HEK 293T cells expressing TRPV1^His and Ca2+-dependent human insulin construct. Put plainly: RF dependent proinsulin release (ELISA). On the procedure: as §1, with “For RF dependent time course from stable PC12 cells, cells were left in serum containing medium prior to treatment to more accurately replicate conditions in vivo before performing the studies as described above. Medium was removed for assay at 15 and 30 mins.” left out
(§3) Assays. Proinsulin was measured in cell supernatants by ELISA (Alpco, Salem, N.H.) according to manufacturer's protocol. Blood glucose was determined using a Breeze 2 glucometer (Bayer; Leverkusen, Germany). […] Plasma levels of human insulin, produced by xenografts, were determined in mouse plasma by human specific ELISA (Alpco).
For orientation: An ELISA detects its analyte on a solid surface through an enzyme-linked reagent.

Test [4] relates to HEK 293T cells transfected with TRPV1, BAPTM and calcium dependent human insulin. Description: RF dependent proinsulin release, dual component system. To be noted: ruthenium red, TRPV1 BAP system. On the procedure: as §1, with “For RF dependent time course from stable PC12 cells, cells were left in serum containing medium prior to treatment to more accurately replicate conditions in vivo before performing the studies as described above. Medium was removed for assay at 15 and 30 mins.” left out
as §3

On to `N.N.N.N.N.N.N.N.N.N.N.N.N.N.[Cl-].[Cl-].[Cl-].[Cl-].[Cl-].[Cl-].[O-2].[O-2].[Ru+3].[Ru+3].[Ru+4]` [ruthenium red], for which the “Effect on RF dependent insulin gene expression” value in test [1] and in test [2] was “blocked” throughout. Also, the “Effect on RF dependent proinsulin release” value in test [3] (ruthenium red 100 μM in calcium imaging buffer) and in test [4] was “blocked” in each case.
As to `C=CC[C@@H]1/C=C(\C)C[C@H](C)C[C@H](OC)[C@H]2O[C@@](O)(C(=O)C(=O)N3CCCC[C@H]3C(=O)O[C@H](/C(C)=C/[C@@H]3CC[C@@H](O)[C@H](OC)C3)[C@H](C)[C@@H](O)CC1=O)[C@H](C)C[C@@H]2OC` [tacrolimus, Tacrolimus], in test [3] (Tacrolimus 100 nM, preincubation 24 hours), the “Effect on RF dependent proinsulin release” value is given as “blocked”.
